Laboratory results: patent US12195473B2, “KRAS mutant protein inhibitors” (JACOBIO PHARMACEUTICALS CO., LTD, priority 2019, dated 2025)
Like-named read-outs stand apart in the source and are kept apart here.

Key:
[1] = tested on: HIS-KRAS (G12C); assay type: biochemical; conditions: read-out: SOS1 catalyzed nucleotide exchange IC50
[2] = Mouse pharmacokinetic study; assay type: in vivo, Balb/c mouse
Experimental: 3. Mouse Pharmacokinetic Study
The purpose of this study was to evaluate the pharmacokinetic properties of compounds in Balb/c mouse (♀) following single dose administration. The day before administration, mice were fasted overnight and free access to water. Six mice were needed for each compound and the six mice were divided into two groups (n=3/group), group A and group B. Mice in group A were treated with a single 3 mg/kg dose of compound (iv). Mice in group B were treated with a single 10 mg/kg dose of compound (po). For each mouse in group A, blood samples were collected at pre-dose, and at the time point of 0.083, 0.25, 0.5, 1, 2, 4, 6, 8 and 24 h post-dose. For each mouse in group B, blood samples were collected at pre-dose, and at the time point of 0.25, 0.5, 1, 2, 3, 4, 6, 8 and 24 h post-dose. Blood samples were placed on ice until centrifugation to obtain plasma samples. The plasma samples were stored at −80° C. until analysis. The concentration of compound in plasma samples were determined using a LC-MS/MS method.

[3] = GDP-loaded HIS-KRAS (G12C), 1 hour pre-incubation with compound, TR-FRET

Structure (SMILES)	IC50 [1, 3] [nM]	also measured
C=CC(=O)N1CCN(c2c(C#N)c(=O)n(-c3c(C)ccnc3C(C)C)c3nc(-c4c(N)c(F)c(F)c(F)c4Cl)c(Cl)cc23)C[C@H]1C (single isomer, unassigned) [Compound 10-1]	43.9	–
C=CC(=O)N1CCN(c2c(C#N)c(=O)n(-c3c(C)ccnc3C(C)C)c3nc(-c4c(N)c(F)c(F)c(F)c4Cl)c(Cl)cc23)C[C@H]1C (single isomer, unassigned) [Compound 10-2]	4.16	–
C=CC(=O)N1CCN(c2c(C#N)c(=O)n(-c3c(C)ccnc3C(C)C)c3nc(-c4c(N)c(F)c(F)c(F)c4F)c(Cl)cc23)[C@@H](C)C1 (single isomer, unassigned) [Compound 11-1]	29.6	–
C=CC(=O)N1CCN(c2c(C#N)c(=O)n(-c3c(C)ccnc3C(C)C)c3nc(-c4c(N)c(F)c(F)c(F)c4F)c(Cl)cc23)[C@@H](C)C1 (single isomer, unassigned) [Compound 11-2]	2.11	–
C=CC(=O)N1CCN(c2c(C#N)c(=O)n(-c3c(C)ccnc3C(C)C)c3nc(-c4c(F)c(F)c(F)c(N)c4Cl)c(Cl)cc23)CC1 (single isomer, unassigned) [Compound 12-1, 4-(4-acryloylpiperazin-1-yl)-7-(3-amino-2-chloro-4,5,6-trifluorophenyl)-6-chloro-1-(2-isopropyl-4-methylpyridin-3-yl)-2-oxo-1,2-dihydro-1,8-naphthyridine-3-carbonitrile]	16	–
C=CC(=O)N1CCN(c2c(C#N)c(=O)n(-c3c(C)ccnc3C(C)C)c3nc(-c4c(F)c(F)c(F)c(N)c4Cl)c(Cl)cc23)CC1 (single isomer, unassigned) [Compound 12-2, 4-(4-acryloylpiperazin-1-yl)-7-(3-amino-2-chloro-4,5,6-trifluorophenyl)-6-chloro-1-(2-isopropyl-4-methylpyridin-3-yl)-2-oxo-1,2-dihydro-1,8-naphthyridine-3-carbonitrile]	–	IC50 [1]: 2.01 nM
C=CC(=O)N1[C@H](C)CN(c2c(C#N)c(=O)n(-c3c(C)ccnc3C(C)C)c3nc(-c4c(N)c(F)c(F)c(F)c4F)c(Cl)cc23)C[C@@H]1C (single isomer, unassigned) [Compound 13-1]	2.73	–
C=CC(=O)N1[C@H](C)CN(c2c(C#N)c(=O)n(-c3c(C)ccnc3C(C)C)c3nc(-c4c(N)c(F)c(F)c(F)c4F)c(Cl)cc23)C[C@@H]1C (single isomer, unassigned) [Compound 13-2]	11.5	–
C=CC(=O)N1CCN(c2c(C#N)c(=O)n(-c3c(C)ccnc3C(C)C)c3nc(-c4c(F)c(F)c(F)c(N)c4Cl)c(Cl)cc23)[C@@H](C)C1 (single isomer, unassigned) [Compound 15-1]	6.87	–
C=CC(=O)N1CCN(c2c(C#N)c(=O)n(-c3c(C)ccnc3C(C)C)c3nc(-c4c(F)c(F)c(F)c(N)c4Cl)c(Cl)cc23)[C@@H](C)C1 (single isomer, unassigned) [Compound 15-2]	83.9	–
C=CC(=O)N1[C@H](C)CN(c2c(C#N)c(=O)n(-c3c(C)ccnc3C(C)C)c3nc(-c4ccccc4F)c(Cl)cc23)C[C@@H]1C [Amgen 7.3, 4-((3S,5R)-4-acryloyl-3,5-dimethylpiperazin-1-yl)-6-chloro-7-(2-fluorophenyl)-1-(2-isopropyl-4-methylpyridin-3-yl)-2-oxo-1,2-dihydro-1,8-naphthyridine-3-carbonitrile, reference compound]	10.5	–
C=CC(=O)N1CCN(c2c(C#N)c(=O)n(-c3c(C)ccnc3C(C)C)c3nc(-c4c(Cl)c(N)c(F)c(F)c4Cl)c(Cl)cc23)CC1 [Compound 2, 4-(4-acryloylpiperazin-1-yl)-7-(3-amino-2,6-dichloro-4,5-difluorophenyl)-6-chloro-1-(2-isopropyl-4-methylpyridin-3-yl)-2-oxo-1,2-dihydro-1,8-naphthyridine-3-carbonitrile]	6.66	–
C=CC(=O)N1CCN(c2c(C#N)c(=O)n(-c3c(C)ccnc3C(C)C)c3nc(-c4c(N)c(Cl)c(F)c(F)c4F)c(Cl)cc23)CC1 [Compound 3, 4-(4-acryloylpiperazin-1-yl)-7-(2-amino-3-chloro-4,5,6-trifluorophenyl)-6-chloro-1-(2-isopropyl-4-methylpyridin-3-yl)-2-oxo-1,2-dihydro-1,8-naphthyridine-3-carbonitrile]	3.67	–
C=CC(=O)N1CCN(c2c(C#N)c(=O)n(-c3c(C)ccnc3C(C)C)c3nc(-c4c(N)c(Cl)c(F)c(Cl)c4F)c(Cl)cc23)CC1 [Compound 4, 4-(4-acryloylpiperazin-1-yl)-7-(2-amino-3,5-dichloro-4,6-difluorophenyl)-6-chloro-1-(2-isopropyl-4-methylpyridin-3-yl)-2-oxo-1,2-dihydro-1,8-naphthyridine-3-carbonitrile]	3.48	–
C=CC(=O)N1CCN(c2c(C#N)c(=O)n(-c3c(C)ccnc3C(C)C)c3nc(-c4c(F)c(N)c(F)c(F)c4F)c(Cl)cc23)CC1 [Compound 6, 4-(4-acryloylpiperazin-1-yl)-7-(3-amino-2,4,5,6-tetrafluorophenyl)-6-chloro-1-(2-isopropyl-4-methylpyridin-3-yl)-2-oxo-1,2-dihydro-1,8-naphthyridine-3-carbonitrile]	1.51	–
C=CC(=O)N1[C@H](C)CN(c2c(C#N)c(=O)n(-c3c(C)ccnc3C(C)C)c3nc(-c4c(F)c(F)c(F)c(N)c4Cl)c(Cl)cc23)C[C@@H]1C [Compound 7, 4-((3S,5R)-4-acryloyl-3,5-dimethylpiperazin-1-yl)-7-(3-amino-2-chloro-4,5,6-trifluorophenyl)-6-chloro-1-(2-isopropyl-4-methylpyridin-3-yl)-2-oxo-1,2-dihydro-1,8-naphthyridine-3-carbonitrile]	14.9	–
C=CC(=O)N1[C@H](C)CN(c2c(C#N)c(=O)n(-c3c(C)ccnc3C(C)C)c3nc(-c4c(F)c(N)c(F)c(F)c4F)c(Cl)cc23)C[C@@H]1C [Compound 8, 4-((3S,5R)-4-acryloyl-3,5-dimethylpiperazin-1-yl)-7-(3-amino-2,4,5,6-tetrafluorophenyl)-6-chloro-1-(2-isopropyl-4-methylpyridin-3-yl)-2-oxo-1,2-dihydro-1,8-naphthyridine-3-carbonitrile]	6.68	–
C=CC(=O)N1CCN(c2c(C#N)c(=O)n(-c3c(C)ccnc3C(C)C)c3nc(-c4c(N)c(F)c(F)c(F)c4F)c(Cl)cc23)C[C@H]1C [Compound 9, 4-((R)-4-acryloyl-3-methylpiperazin-1-yl)-7-(2-amino-3,4,5,6-tetrafluorophenyl)-6-chloro-1-(2-isopropyl-4-methylpyridin-3-yl)-2-oxo-1,2-dihydro-1,8-naphthyridine-3-carbonitrile]	2.3	–
C=CC(=O)N1CCN(c2c(C#N)c(=O)n(-c3c(C)ccnc3C(C)C)c3nc(-c4c(N)c(F)c(F)c(F)c4F)c(Cl)cc23)[C@@H](C)C1 [Compound 11, 4-((S)-4-acryloyl-2-methylpiperazin-1-yl)-7-(2-amino-3,4,5,6-tetrafluorophenyl)-6-chloro-1-(2-isopropyl-4-methylpyridin-3-yl)-2-oxo-1,2-dihydro-1,8-naphthyridine-3-carbonitrile]	–	Pharmacokinetic properties (in words) ([2]; mouse model, compared with Compound A, Amgen 6 and Amgen 6.3): excellent pharmacokinetic properties; clearance ([2]; plasma, Balb/c mouse (female), 3 mg/kg, iv): 7.2 mL/min/kg; Vd ([2]; plasma, Balb/c mouse (female), 3 mg/kg, iv, read-out: Vss): 1 L/kg; Cmax ([2]; plasma, Balb/c mouse (female), 10 mg/kg, po): 3340 ng/mL; AUC(0-t) ([2]; plasma, Balb/c mouse (female), 10 mg/kg, po, read-out: AUC0-24 h): 9590 ng·h/mL; bioavailability ([2]; plasma, Balb/c mouse (female), 10 mg/kg, po, read-out: Oral BA (F %)): 38%
C=CC(=O)N1CCN(c2c(C#N)c(=O)n(-c3c(C)ccnc3C(C)C)c3nc(-c4c(F)c(F)c(F)c(N)c4Cl)c(Cl)cc23)CC1 [Compound 12, 4-(4-acryloylpiperazin-1-yl)-7-(3-amino-2-chloro-4,5,6-trifluorophenyl)-6-chloro-1-(2-isopropyl-4-methylpyridin-3-yl)-2-oxo-1,2-dihydro-1,8-naphthyridine-3-carbonitrile]	–	IC50 [1]: 3.85 nM
C=CC(=O)N1[C@H](C)CN(c2c(C#N)c(=O)n(-c3c(C)ccnc3C(C)C)c3nc(-c4c(N)c(F)c(F)c(F)c4F)c(Cl)cc23)C[C@@H]1C [Compound 13, 4-((3S,5R)-4-acryloyl-3,5-dimethylpiperazin-1-yl)-7-(2-amino-3,4,5,6-tetrafluorophenyl)-6-chloro-1-(2-isopropyl-4-methylpyridin-3-yl)-2-oxo-1,2-dihydro-1,8-naphthyridine-3-carbonitrile]	6.63	–
C=CC(=O)N1CCN(c2c(C#N)c(=O)n(-c3c(C)ccnc3C(C)C)c3nc(-c4c(N)c(F)c(F)c(F)c4F)c(Cl)cc23)C[C@H]1C [Compound 14, 4-((R)-4-acryloyl-3-methylpiperazin-1-yl)-7-(2-amino-3,4,5,6-tetrafluorophenyl)-6-chloro-1-(2-isopropyl-4-methylpyridin-3-yl)-2-oxo-1,2-dihydro-1,8-naphthyridine-3-carbonitrile]	3.56	–
C=CC(=O)N1CCN(c2c(C#N)c(=O)n(-c3c(C)ccnc3C(C)C)c3nc(-c4c(N)cccc4F)c(Cl)cc23)CC1 [Compound A, 4-(4-acryloylpiperazin-1-yl)-7-(2-amino-6-fluorophenyl)-6-chloro-1-(2-isopropyl-4-methylpyridin-3-yl)-2-oxo-1,2-dihydro-1,8-naphthyridine-3-carbonitrile, reference compound]	1.69	–
